Laboratory results from patent US9499553B2 (CHUGAI SEIYAKU KABUSHIKI KAISHA, priority 2013, dated 2016).

What follows are compounds tested against T1, human NaPi-IIb (Homo sapiens, UniProt O95436) (assay: Inhibitory effect on 33PO4 uptake into human NaPi-IIb-expressing CHO cells). Settings: read-out: IC50.
T1 construct: expressed in transfected cells
T1 sequence (O95436 1-690): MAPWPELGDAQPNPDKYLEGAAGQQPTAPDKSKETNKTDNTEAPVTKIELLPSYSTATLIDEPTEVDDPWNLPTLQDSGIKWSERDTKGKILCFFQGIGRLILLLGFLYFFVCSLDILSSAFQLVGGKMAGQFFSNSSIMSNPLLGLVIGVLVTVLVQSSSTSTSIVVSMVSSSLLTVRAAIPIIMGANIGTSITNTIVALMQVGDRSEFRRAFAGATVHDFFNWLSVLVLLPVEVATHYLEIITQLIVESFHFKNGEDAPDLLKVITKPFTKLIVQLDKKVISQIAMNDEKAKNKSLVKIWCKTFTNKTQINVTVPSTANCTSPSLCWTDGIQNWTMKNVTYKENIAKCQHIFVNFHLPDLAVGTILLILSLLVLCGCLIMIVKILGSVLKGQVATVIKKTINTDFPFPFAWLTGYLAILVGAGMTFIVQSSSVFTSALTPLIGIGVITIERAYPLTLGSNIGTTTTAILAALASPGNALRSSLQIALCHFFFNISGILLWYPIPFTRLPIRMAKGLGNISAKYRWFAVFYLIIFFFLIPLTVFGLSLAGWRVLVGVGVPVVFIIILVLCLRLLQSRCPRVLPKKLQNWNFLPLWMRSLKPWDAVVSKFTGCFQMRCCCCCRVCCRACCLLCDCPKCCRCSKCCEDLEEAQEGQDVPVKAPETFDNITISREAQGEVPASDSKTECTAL
Assay type: cell-based
Method in brief: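 Uptake of ³³PO4 was measured by scintillation counting after ice-cold buffer A washes. Cells were CHO stably expressing human NaPi-IIb, seeded overnight, and exposed to ³³PO4 in buffer A at room temperature.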

| SMILES | IC50 [µM] |
| --- | --- |
| C[C@]12CCCN1N(Cc1cccc(F)c1F)C(=O)C(C(=O)Nc1ccc(C(F)(F)F)cc1-c1cnc(Cl)cn1)=C2O [Example 74] | 4.1 |
| COc1cccc(-c2cc(C(F)(F)F)ccc2NC(=O)C2=C(O)[C@@]3(C)CCCN3N(Cc3ccc(C#CCOCCO)c(F)c3F)C2=O)c1OC [Example 137] | 19.7 |
| C[C@]12CCCN1N(Cc1cc(Cl)ccc1F)C(=O)C(C(=O)Nc1ccc(C(F)(F)F)cc1-c1cc(C(F)(F)F)ncn1)=C2O [Example 211] | 5.7 |
| C[C@]12CCCN1N(Cc1c(F)cccc1Cl)C(=O)C(C(=O)Nc1ccc(C(F)(F)F)cc1-c1ccc(C(F)(F)F)nc1)=C2O [Example 204] | 1 |
| CN1[C@@H](C(C)(C)C)C(O)=C(C(=O)Nc2ccc(C(F)(F)F)cc2-c2ccc(C(F)(F)F)nc2)C(=O)N1Cc1ccc(OCCN2CCOCC2)c(F)c1F [Example 266] | 11.6 |
| COc1cc(-c2cc(C(F)(F)F)ccc2NC(=O)C2=C(O)[C@@]3(C)CCCN3N(Cc3cccc(F)c3F)C2=O)cnc1C#N [Example 114, (4aR)—N-[2-(6-Cyano-5-methoxypyridin-3-yl)-4-(trifluoromethyl)phenyl]-1-[(2,3-difluorophenyl)methyl]-4-hydroxy-4a-methyl-2-oxo-6,7-dihydro-5H-pyrrolo[1,2-b]pyridazine-3-carboxamide] | 7.9 |
| CN1N(Cc2cccc(F)c2F)C(=O)C(C(=O)Nc2ccc(C(F)(F)F)cc2-c2cc(C#N)ncn2)=C(O)C1(C)C [Example 303] | 16 |
| COc1ccc(OC)c(CN2C(=O)C(C(=O)Nc3ccc(C(F)(F)F)cc3-c3ccc(C(F)(F)F)nc3)=C(O)[C@@]3(C)CCCN23)c1 [Example 176] | 4 |
| C[C@@H]1COC[C@H](C)N1CCOc1ccc(CN2C(=O)C(C(=O)Nc3ccc(C(F)(F)F)cc3-c3cc(C(F)(F)F)ncn3)=C(O)C3(CCC3)N2C)c(F)c1F [Example 344] | 13.7 |
| C[C@]12CCCN1N(Cc1ccc(C#CCN3CCCC3=O)c(F)c1F)C(=O)C(C(=O)Nc1ccc(Br)c(F)c1)=C2O [Example 131] | 15.3 |
| CN1N(Cc2cccc(F)c2F)C(=O)C(C(=O)Nc2ccc(C(F)(F)F)nc2-c2cncc(C(F)(F)F)c2)=C(O)C1(C)C [Example 306] | 8.4 |
| COc1cccc(CN2C(=O)C(C(=O)Nc3ccc(C(F)(F)F)cc3-c3ccc(C(F)(F)F)nc3)=C(O)[C@@]3(C)CCCN23)c1OC [Example 175] | 3.4 |
| Cc1c(-c2cc(C(F)(F)F)ccc2NC(=O)C2=C(O)C3(CCC3)N(C)N(Cc3ccc(OCCN4CCOCC4)c(F)c3F)C2=O)ncnc1C(F)(F)F [Example 285] | 8.5 |
| Cc1nc(NC(=O)C2=C(O)[C@H](C(C)(C)C)N(C)N(Cc3cccc(F)c3F)C2=O)ccc1Br [Example 241] | 16.5 |
| Cc1nc(NC(=O)C2=C(O)C3(CCC3)N(C)N(Cc3cccc(F)c3F)C2=O)ccc1Br [Example 259] | 10 |
| COC(=O)c1cc(F)c(CN2C(=O)C(C(=O)Nc3ccc(C(F)(F)F)cc3-c3ccc(C(F)(F)F)nc3)=C(O)[C@@]3(C)CCCN23)c(F)c1 [Example 165, Methyl 4-[[(4aR)-4-Hydroxy-4a-methyl-2-oxo-3-[[4-(trifluoromethyl)-2-[6-(trifluoromethyl)pyridin-3-yl]phenyl]carbamoyl]-6,7-dihydro-5H-pyrrolo[1,2-b]pyridazin-1-yl]methyl]-3,5-difluorobenzoate] | 1.8 |

| SMILES | IC50 [µM] |
| --- | --- |
| C[C@]12CCCN1N(Cc1cc(F)c(F)cc1F)C(=O)C(C(=O)Nc1cc(F)c(Br)c(F)c1)=C2O [Example 194] | 19.3 |
| C[C@]12CCCN1N(Cc1cccc(F)c1F)C(=O)C(C(=O)Nc1ccc(Cl)cn1)=C2O [Example 79] | 6.7 |
| Cc1c(C#N)ncnc1-c1cc(C(F)(F)F)ccc1NC(=O)C1=C(O)C(C)(C)N(C)N(Cc2cccc(F)c2F)C1=O [Example 311] | 8.2 |
| CN1[C@@H](C(C)(C)C)C(O)=C(C(=O)Nc2ccc(C(F)(F)F)cc2C(F)(F)F)C(=O)N1Cc1ccc(OCCN2CCOCC2)c(F)c1F [Example 277] | 17.8 |
| C[C@]12CCCN1N(Cc1ccc(F)c(Br)c1)C(=O)C(C(=O)Nc1cc(F)c(Br)c(F)c1)=C2O [Example 224] | 7.2 |
| CN1N(Cc2cccc(F)c2F)C(=O)C(C(=O)Nc2ccc(C(F)(F)F)cc2-c2ccc(S(=O)(=O)N(C)C)cc2)=C(O)C1(C)C [Example 308] | 12.6 |
| C[C@]12CCCN1N(Cc1cccc(OC(F)F)c1)C(=O)C(C(=O)Nc1ccc(C(F)(F)F)cc1-c1ccc(C(F)(F)F)nc1)=C2O [Example 167] | 4.3 |
| CN1N(Cc2cccc(F)c2F)C(=O)C(C(=O)Nc2ccc(Br)c(C(F)(F)F)n2)=C(O)C12CCC2 [Example 258] | 2.7 |
| CN1N(Cc2ccc(OCC(=O)N3CCOCC3)c(F)c2F)C(=O)C(C(=O)Nc2ccc(C(F)(F)F)cc2-c2cc(C(F)(F)F)ncn2)=C(O)C12CCC2 [Example 336, 8-[[2,3-Difluoro-4-(2-morpholin-2-oxo-ethoxy)phenyl]methyl]-5-hydroxy-9-methyl-7-oxo-N-[4-(trifluoromethyl)-2-[6-(trifluoromethyl)pyrimidin-4-yl]phenyl]-8,9-diazaspiro[3.5]non-5-ene-6-carboxamide] | 19.7 |
| CN(CCO)CCOc1ccc(CN2C(=O)C(C(=O)Nc3ccc(C(F)(F)F)cc3-c3cc(C(F)(F)F)ncn3)=C(O)C3(CCC3)N2C)c(F)c1F [Example 347] | 25.2 |
| Cc1c(Cl)ncnc1-c1cc(Cl)ccc1NC(=O)C1=C(O)[C@H](C(C)(C)C)N(C)N(Cc2ccc(OCCN3CCOCC3)c(F)c2F)C1=O [Example 275] | 16.8 |
| C[C@]12CCCN1N(Cc1cccc(F)c1F)C(=O)C(C(=O)Nc1ccc(C(F)(F)F)cc1-c1ncnc(C#N)c1Cl)=C2O [Example 23] | 6.9 |
| C[C@@]12CCCN1N(Cc1ccc(OCCN3CCOCC3)c(F)c1F)C(=O)C(C(=O)Nc1ccc(Cl)cc1-c1cc(C(F)(F)F)ncn1)=C2O [Example 107] | 25.9 |
| C[C@]12CCCN1N(Cc1ccc(F)c(F)c1)C(=O)C(C(=O)Nc1cc(F)c(Br)c(F)c1)=C2O [Example 191] | 14.5 |
| CN(C)S(=O)(=O)c1ccc(-c2cc(C(F)(F)F)ccc2NC(=O)C2=C(O)[C@@]3(C)CCCN3N(Cc3cccc(F)c3F)C2=O)s1 [Example 71] | 7.8 |
| CN1N(Cc2cccc(F)c2F)C(=O)C(C(=O)Nc2ccc(C(F)(F)F)cc2-c2ncnc(C#N)c2Cl)=C(O)C1(C)C [Example 312] | 6.3 |

Same assay, conditions: read-out: IC50 against 33PO4 uptake into human NaPi-IIb-expressing cells

| SMILES | IC50 [µM] |
| --- | --- |
| CN1N(Cc2ccc(OCCCCCOCCO)c(F)c2F)C(=O)C(C(=O)Nc2ccc(C(F)(F)F)cc2-c2cc(C(F)(F)F)ncn2)=C(O)C12CCCC2 [Example 397] | 8.6 |
| CN(CCOCCOCCOCCOCCOc1ccc(CN2C(=O)C(C(=O)Nc3ccc(C(F)(F)F)cc3-c3cc(C(F)(F)F)ncn3)=C(O)C3(CCCC3)N2C)c(F)c1F)C[C@@H](O)[C@H](O)[C@@H](O)[C@@H](O)CO [Example 421, 7-[[2,3-Difluoro-4-[2-[2-[2-[2-[2-[methyl-[(2R,3 S,4S,5 S)-2,3,4,5,6-pentahydroxyhexyl]amino]ethoxy]ethoxy]ethoxy]ethoxy]ethoxy]phenyl]methyl]-10-hydroxy-6-methyl-8-oxo-N-[4-(trifluoromethyl)-2-[6-(trifluoromethyl)pyrimidin-4-yl]phenyl]-6,7-diazaspiro[4.5]dec-9-ene-9-carboxamide] | 19.5 |
| CN1N(Cc2ccc(OCCCCOC[C@H](O)CO)c(F)c2F)C(=O)C(C(=O)Nc2ccc(C(F)(F)F)cc2-c2ccc(C(F)(F)F)nc2)=C(O)C12CCC2 [Example 384] | 11 |
| CN1N(Cc2ccc(OCCCOC[C@H](O)CO)c(F)c2F)C(=O)C(C(=O)Nc2ccc(C(F)(F)F)cc2-c2cc(C(F)(F)F)ncn2)=C(O)C12CCC2 [Example 389] | 24.6 |
| COC[C@@H]1CCCN1CCOc1ccc(CN2C(=O)C(C(=O)Nc3ccc(C(F)(F)F)cc3-c3cc(C(F)(F)F)ncn3)=C(O)C3(CCCC3)N2C)c(F)c1F [Example 375] | 17.8 |
| CN(CCO)CCOc1ccc(CN2C(=O)C(C(=O)Nc3ccc(C(F)(F)F)cc3-c3cc(C(F)(F)F)ncn3)=C(O)C3(CCCC3)N2C)c(F)c1F [Example 373] | 23.5 |
| CN1N(Cc2ccc(OCCN[C@@H](CC(=O)O)C(=O)O)c(F)c2F)C(=O)C(C(=O)Nc2ccc(C(F)(F)F)cc2-c2cc(C(F)(F)F)ncn2)=C(O)C12CCCC2 [Example 381, (2S)-2-[2-[2,3-Difluoro-4-[[10-hydroxy-6-methyl-8-oxo-9-[[4-(trifluoromethyl)-2-[6-(trifluoromethyl)pyrimidin-4-yl]phenyl]carbamoyl]-6,7-diazaspiro[4.5]dec-9-en-7-yl]methyl]phenoxy]ethylamino]butanedioate] | 22 |
| CN1N(Cc2ccc(OCCOCCNC(=O)[C@@H](O)[C@H](O)[C@@H](O)[C@@H](O)CO)c(F)c2F)C(=O)C(C(=O)Nc2ccc(C(F)(F)F)cc2-c2cc(C(F)(F)F)ncn2)=C(O)C12CCCC2 [Example 427] | 17.4 |
| CN(CCOCCC(=O)NCC(O)CO)CCOc1ccc(CN2C(=O)C(C(=O)Nc3ccc(C(F)(F)F)cc3-c3cc(C(F)(F)F)ncn3)=C(O)C3(CCCC3)N2C)c(F)c1F (centres unmarked) [Example 426] | 26.1 |
